The target in one data set is T1, VEGFR2 (Homo sapiens, UniProt P35968).
T1 construct: expressed in transfected cells; host or cells: CHO cells
Briefly: VEGFR2 cell-based assay (ELISA, phosphor-/total VEGFR2 in transfected CHO cells). The following applies: compound at 100 nM; CHO cells transfected with full length VEGFR2; FBS stimulation; read-out: % VEGFR2 kinase activity remains. The source says: A standard cell-based assay for VEGFR2 kinase activity can be used to test or screen the compounds of this invention and to identify VEGFR2 antagonists. In this example, ELISA kits (R&D Systems, Inc., Minneapolis, Minn. 55413, USA) were used.
The activity of VEGFR2 in cells depended on its autophosphorylation level by various factors including growth factors. In order to induce the cell to produce VEGFR2, full length of VEGFR2 sequence was cloned into PC-DNA3.1 vector, the plasmid was then transfected into CHO cells. After 48 hours, the expression of VEGFR2 in transfected CHO cells was confirmed by regular western blotting.
A compound to be tested was first dissolved in DMSO to a concentration of 10 mM and stored at −20° C. One day before the test, CHO cells transfected with full length VEGFR2 plasmid were grown in Dulbecco's Modified Eagle Medium (DMEM) without the presence of serum. On the day of the test, the compounds with various concentrations in DMSO (from 0.5 nM to 500 nM) were added into DMEM. Two hours later, 20% of FBS (Fetal Bovine Serum) was added into the medium to stimulate the production of phosphor-VEGFR2. Cell lysate from approximately 5×10^5 transfected CHO cells were reacted with anti-phosphor VEGFR2 or anti-total VEGFR2 antibody in 96-well plates, in the presence of detection antibody. The phosphor-VEGFR2 or total VEGFR2 were detected with Streptavidin-HRP(R&D Systems), followed by chemiluminescent detection. The level of VEGFR2 kinase activity was quantified as the ratio between the amount of phosphor- and that of total VEGFR2 proteins.
For orientation: ELISA stands for enzyme-linked immunosorbent assay.

Another data set addresses T2, EphB4 (Homo sapiens, UniProt P54760).
T2 construct: EphB4 autophosphorylation in PC-3 human prostate cancer cells; host or cells: PC-3 human prostate cancer cells
T2 sequence (P54760 16-987): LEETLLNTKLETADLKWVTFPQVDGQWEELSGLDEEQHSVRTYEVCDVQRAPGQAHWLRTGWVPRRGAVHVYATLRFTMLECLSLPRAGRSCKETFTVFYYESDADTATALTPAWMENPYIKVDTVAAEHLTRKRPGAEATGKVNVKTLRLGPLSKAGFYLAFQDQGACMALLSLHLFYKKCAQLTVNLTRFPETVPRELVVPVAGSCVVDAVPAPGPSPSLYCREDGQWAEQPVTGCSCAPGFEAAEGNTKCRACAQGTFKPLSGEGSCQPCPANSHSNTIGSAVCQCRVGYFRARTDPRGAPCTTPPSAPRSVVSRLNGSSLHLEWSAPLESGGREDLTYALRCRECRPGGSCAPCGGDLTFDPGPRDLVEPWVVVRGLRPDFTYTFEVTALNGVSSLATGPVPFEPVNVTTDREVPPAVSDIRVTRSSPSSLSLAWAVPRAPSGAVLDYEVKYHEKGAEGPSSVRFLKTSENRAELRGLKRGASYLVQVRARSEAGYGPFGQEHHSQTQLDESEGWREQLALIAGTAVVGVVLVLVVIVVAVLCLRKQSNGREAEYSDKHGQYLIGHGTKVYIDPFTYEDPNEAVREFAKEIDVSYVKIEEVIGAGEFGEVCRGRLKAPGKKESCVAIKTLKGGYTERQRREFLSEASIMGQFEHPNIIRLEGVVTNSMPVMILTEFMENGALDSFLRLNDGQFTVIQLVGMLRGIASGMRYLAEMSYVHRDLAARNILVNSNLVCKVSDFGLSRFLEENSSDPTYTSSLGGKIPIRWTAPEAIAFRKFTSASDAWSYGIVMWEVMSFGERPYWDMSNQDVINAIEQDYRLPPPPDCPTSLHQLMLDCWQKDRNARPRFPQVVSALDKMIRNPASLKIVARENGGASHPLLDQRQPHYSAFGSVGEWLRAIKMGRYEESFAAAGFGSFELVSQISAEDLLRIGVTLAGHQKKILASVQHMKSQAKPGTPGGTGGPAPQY
As to the kind of experiment: EphB4 cell-based assay (quantitative Western blotting, PC-3 cells, Ephrin-B2 stimulated). The following applies: compound at 100 nM; PC-3 human prostate cancer cells; Ephrin-B2 stimulation; read-out: % EphB4 kinase activity remains. The source says:
A standard image-based quantitative Western blotting assay for EphB4 kinase activity can be used to test or screen the compounds of this invention and to identify EphB4 antagonists.
The kinase activity of EphB4 in cells depends on its autophosphorylation level stimulated by the binding to its ligand Ephrin-B2. High level of EphB4 autophosphorylation in PC-3 human prostate cancer cells (ATCC, USA) induced by the application of Ephrin-B2 to the cell culture can be observed by regular Western blotting assay.
A compound to be tested was first dissolved in DMSO to a concentration of 10 mM and stored at −20° C. On the day of screening procedure, the compound in DMSO was added into DMEM medium to a final concentration of 100 nM. Two hours later, Ephrin-B2 ([…]) was added into DMEM medium to stimulate the production of phosphor-EphB4. The phosphor-EphB4 was detected based on its molecular weight and with anti-phosphor protein antibody PY-20 in cell lysate from approximately 5×10^5 PC-3 cells by Western blotting followed by imaging quantification. The relative level of EphB4 kinase activity was quantified as the ratio between the amount of phosphor-EphB4 and that of total Actin proteins.

For another data set, the system named is Mouse liver microsome. As to the kind of experiment: Liver microsomal stability assay, mouse. The following applies: 40 μM, 37° C., 30 min, 1 mg/ml microsome proteins; class relative to deuterium non-enriched counterpart. The format is in vitro ADME. Set-up: key: A: the percentage of a compound remains is greater than that of its deuterium non-enriched counterpart; B: a result otherwise. Here is the method:
(§1) A standard liver microsomal stability assay can be used to test or screen the compounds of this invention and to identify compounds with enhanced metabolic stability due to the enrichment of deuterium in the compounds. Liver microsome proteins prepared from different species such as mouse and rat were obtained from a commercial source (Research Institute for Liver Diseases, Shanghai, China). The assay was conducted in 1.5% potassium hydrogenphosphate (K2HPO4) in the presence of liver microsome proteins at 1 mg/ml and supplemented with an […] (3.3 mM NADPH, 3.3 mM glucose-6-phosphate, 6 units/ml G6PDase, and 3.3 mM magnesium chloride). Test compound was added into the assay mixture to a final concentration of 40 μM and incubated at 37° C. for 0 or 30 minutes. The reaction was stopped by the addition of 20 μM Bifonazole/CAN. Samples were then centrifuged at 14000 rpm for 10 minutes to precipitate proteins. Supernatant were then transferred to microcentrifuge tubes and subject to reverse phase HPLC analysis to determine the concentration of test compound.
(§2) The percentage of compounds that remained in the assay reactions after a thirty-minute incubation at 37° C. is calculated as the ratio between the amount of compound remained after a thirty-minute and that after a zero-minute incubation.
A general note: Microsomes from liver hold many membrane-bound enzymes, among them those of drug oxidation.

The test system of another data set is Rat liver microsome. Briefly: Liver microsomal stability assay, rat. The following applies: 40 μM, 37° C., 30 min, 1 mg/ml microsome proteins; class relative to deuterium non-enriched counterpart. Set-up: key: A: the percentage of a compound remains is greater than that of its deuterium non-enriched counterpart; B: a result otherwise. Format: in vitro ADME. The method, then:
as §1, §2

Molecules are shown by their SMILES. Some results are limits rather than exact numbers.

T1 sequence (P35968 20-1356): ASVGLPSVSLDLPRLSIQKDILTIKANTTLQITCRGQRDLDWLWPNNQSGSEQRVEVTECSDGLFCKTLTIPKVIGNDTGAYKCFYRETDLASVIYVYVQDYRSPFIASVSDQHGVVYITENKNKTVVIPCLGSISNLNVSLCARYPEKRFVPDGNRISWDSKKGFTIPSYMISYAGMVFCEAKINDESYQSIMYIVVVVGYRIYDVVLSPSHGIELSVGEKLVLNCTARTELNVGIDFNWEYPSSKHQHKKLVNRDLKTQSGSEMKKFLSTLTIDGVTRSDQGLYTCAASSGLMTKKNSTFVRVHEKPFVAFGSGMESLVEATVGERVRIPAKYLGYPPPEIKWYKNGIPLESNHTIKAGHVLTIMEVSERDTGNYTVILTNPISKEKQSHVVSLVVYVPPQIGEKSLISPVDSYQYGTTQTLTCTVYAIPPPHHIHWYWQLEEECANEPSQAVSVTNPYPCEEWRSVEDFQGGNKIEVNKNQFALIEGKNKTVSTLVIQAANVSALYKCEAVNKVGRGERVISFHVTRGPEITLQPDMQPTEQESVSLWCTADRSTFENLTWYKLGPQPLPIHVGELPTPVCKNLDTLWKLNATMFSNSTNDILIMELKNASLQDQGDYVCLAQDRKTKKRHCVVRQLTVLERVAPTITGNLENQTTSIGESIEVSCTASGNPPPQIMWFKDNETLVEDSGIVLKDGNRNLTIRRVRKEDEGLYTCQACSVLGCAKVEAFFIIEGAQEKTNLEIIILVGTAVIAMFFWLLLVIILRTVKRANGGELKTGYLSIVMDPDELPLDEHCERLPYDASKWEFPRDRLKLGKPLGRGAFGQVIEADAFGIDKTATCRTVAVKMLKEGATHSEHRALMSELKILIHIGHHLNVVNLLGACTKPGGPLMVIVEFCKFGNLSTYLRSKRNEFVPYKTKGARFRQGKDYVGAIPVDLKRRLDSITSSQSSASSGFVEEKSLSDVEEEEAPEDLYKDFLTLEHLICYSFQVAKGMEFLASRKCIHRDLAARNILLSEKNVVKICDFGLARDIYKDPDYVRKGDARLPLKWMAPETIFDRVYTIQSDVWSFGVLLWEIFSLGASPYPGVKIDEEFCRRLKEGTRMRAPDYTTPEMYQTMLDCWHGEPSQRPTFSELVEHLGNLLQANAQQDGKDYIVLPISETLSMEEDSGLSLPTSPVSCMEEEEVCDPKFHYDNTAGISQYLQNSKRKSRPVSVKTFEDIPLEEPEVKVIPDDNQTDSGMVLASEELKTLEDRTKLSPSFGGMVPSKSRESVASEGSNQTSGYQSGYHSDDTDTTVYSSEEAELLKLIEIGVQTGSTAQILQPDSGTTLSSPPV

Consider `[2H]C(c1c[nH]c2ncccc12)n1ccc2c(NC(=O)Nc3cccc(C)c3)cccc21` (stereo not shown) [Example 22, 1-[1-[deuterio(1H-pyrrolo[2,3-b]pyridin-3-yl)methyl]indol-4-yl]-3-(m-tolyl)urea], for which the remaining activity at 0.1 µM on VEGFR2 was less than 70%; at EphB4 it was not below 70%. The “% of compound remained at the 30th minutes, Mouse liver microsome” value in the data set with Mouse liver microsome was “A”. For the same compound, the “% of compound remained at the 30th minutes, Rat liver microsome” value in the data set on Rat liver microsome is “B”.

These data come from patent US20130165475A1, “DEUTERIUM-ENRICHED HETEROCYCLIC COMPOUNDS AS KINASE INHIBITORS” (ASCEPION PHARMACEUTICALS, INC., priority 2010, published 2013).
